Values quoted from earlier work as cited in PMC12308805, “Ultrahigh-Throughput Virtual Screening Strategies against PPI Targets: A Case Study of STAT Inhibitors” (Journal of Chemical Information and Modeling, 2025).
Square brackets hold non-standard residues; d marks the D form. Peptide text beside a SMILES is read from it. * marks the point of attachment. pY = N[C@@H](Cc1ccc(OP(=O)(O)O)cc1)C(=O)O; X1 = O=C(c1cc2cc(OP(=O)(O)O)ccc2[nH]1)*; aThr = C[C@H](O)[C@H](N)C(=O)O

Tested on: STAT3
Conditions: cited from earlier work

| Structure (SMILES) | Type (known STAT3 active) |
| --- | --- |
| CC(C)C[C@H](NC(=O)c1cc2cc(OP(=O)(O)O)ccc2[nH]1)C(=O)N1CCC[C@H]1C(=O)N[C@@H](CCC(N)=O)C(=O)N[C@H](C(N)=O)[C@@H](C)O [CHEMBL485921] (X1-LPQT-NH2) | Active |
| CC(=O)N[C@@H](Cc1ccc(OP(=O)(O)O)cc1)C(=O)N[C@@H](CC(C)C)C(=O)N1CCC[C@H]1C(=O)N[C@@H](CCC(N)=O)C(=O)N[C@H](C(=O)N[C@H](C(N)=O)C(C)C)[C@H](C)O [CHEMBL502473] | Active |
| CC(=O)N[C@@H](Cc1ccc(OP(=O)(O)O)cc1)C(=O)N[C@H]1CCc2cccc3c2N(C1=O)[C@H](C(=O)N[C@@H](CCC(N)=O)C(=O)N[C@H](C(N)=O)[C@@H](C)O)C3 [CHEMBL503765] | Active |
| CC(=O)N[C@@H](Cc1ccc(OP(=O)(O)O)cc1)C(=O)N[C@@H](CC(C)C)C(=O)N1CCC[C@H]1C(=O)N[C@@H](CCC(N)=O)C(=O)N[C@H](C(N)=O)[C@H](C)O [CHEMBL505076] (Ac-[pY]LPQ[aThr]-NH2) | Active |
| CC(C)C[C@H](NC(=O)/C=C/c1ccc(OP(=O)(O)O)cc1)C(=O)N1CCC[C@H]1C(=O)NCCCC(N)=O [CHEMBL573048] | Active |
| CC(C)C[C@H](NC(=O)/C=C/c1ccc(OP(=O)(O)O)cc1)C(=O)N1CCC[C@H]1C(=O)N[C@@H](CC(N)=O)C(=O)NCc1ccccc1 [CHEMBL573901] | Active |
| CC(C)C[C@H](NC(=O)/C=C/c1ccc(OP(=O)(O)O)cc1)C(=O)N1C[C@H]2C[C@H]2[C@H]1C(=O)N[C@H](C)CCC(N)=O [CHEMBL576784] | Active |
| CC(C)C[C@H](NC(=O)/C=C/c1ccc(OP(=O)(O)O)cc1)C(=O)N1CCC[C@H]1C(=O)N[C@H](C)CCC(N)=O [CHEMBL578635] | Active |
| CC(C)C[C@H](NC(=O)/C=C/c1ccc(OP(=O)(O)O)cc1)C(=O)N1C[C@H]2C[C@H]2[C@H]1C(=O)N[C@@H](CCC(N)=O)COCc1ccccc1 [CHEMBL583727] | Active |
| CC(C)C[C@H](NC(=O)/C=C/c1ccc(OP(=O)(O)O)cc1)C(=O)N1CCC[C@H]1C(=O)N[C@@H](CCC(N)=O)[C@@H](C)OCc1ccccc1 [CHEMBL583758] | Active |
| CC(C)C[C@H](NC(=O)/C=C/c1ccc(OP(=O)(O)O)cc1)C(=O)N1CCC[C@H]1C(=O)N[C@H](C)COC(N)=O [CHEMBL584376] | Active |

Same assay, conditions: sheet 6QHD_actives_decoys; known STAT3 actives of the retrospective screening set; ref ChEMBL / literature; cited from earlier work

| Structure (SMILES) | Type (known STAT3 active) |
| --- | --- |
| COC(=O)[C@H](CCC(N)=O)NC(=O)[C@@H]1Cc2cccc3c2N1C(=O)[C@@H](NC(=O)/C=C/c1ccc(OP(=O)(O)O)cc1)CC3 [CHEMBL503365] | Active |
| NC(=O)CC[C@H](NC(=O)[C@@H]1Cc2cccc3c2N1C(=O)[C@@H](NC(=O)/C=C/c1ccc(OP(=O)(O)O)cc1)C=C3)C(=O)NCc1ccccc1 [CHEMBL508912] | Active |
| NC(=O)CC[C@H](NC(=O)[C@@H]1Cc2cccc3c2N1C(=O)[C@@H](NC(=O)/C=C/c1ccc(OP(=O)(O)O)cc1)CC3)C(=O)O [CHEMBL510008] | Active |
| NC(=O)C1CCN(C(=O)[C@@H]2Cc3cccc4c3N2C(=O)[C@@H](NC(=O)/C=C/c2ccc(OP(=O)(O)O)cc2)CC4)C1 (stereo partly shown) [CHEMBL515762] | Active |
| CC(=O)NC[C@H](CCC(N)=O)NC(=O)[C@@H]1CCCN1C(=O)[C@H](CC(C)C)NC(=O)/C=C/c1ccc(OP(=O)(O)O)cc1 [CHEMBL573442] | Active |
| CC(C)C[C@H](NC(=O)/C=C/c1ccc(OP(=O)(O)O)cc1)C(=O)N1C[C@H]2C[C@H]2[C@H]1C(=O)N[C@@H](CCC(N)=O)[C@@H](C)OCc1ccccc1 [CHEMBL573443] | Active |
| CC(C)C[C@H](NC(=O)/C=C/c1ccc(OP(=O)(O)O)cc1)C(=O)N1CCC[C@H]1C(=O)N[C@@H](CCC(N)=O)COC(N)=O [CHEMBL573643] | Active |
| CC(C)C[C@H](NC(=O)/C=C/c1ccc(OP(=O)(O)O)cc1)C(=O)N1CCC[C@H]1C(=O)N[C@H](COCc1ccccc1)COC(N)=O [CHEMBL573902] | Active |
| CC(C)C[C@H](NC(=O)/C=C/c1ccc(OP(=O)(O)O)cc1)C(=O)N1CCC[C@H]1C(=O)N[C@@H](CCC(N)=O)Cc1ccc(O)cc1 [CHEMBL573903] | Active |
| CC(C)C[C@H](NC(=O)/C=C/c1ccc(OP(=O)(O)O)cc1)C(=O)N1CCC[C@H]1C(=O)N[C@@H](CCC(N)=O)COCc1ccccc1 [CHEMBL573904] | Active |
| CC(C)C[C@H](NC(=O)/C=C/c1ccc(OP(=O)(O)O)cc1)C(=O)N1C[C@H]2C[C@H]2[C@H]1C(=O)N[C@@H](CCC(N)=O)C(C)C [CHEMBL573930] | Active |
| CC(C)C[C@H](NC(=O)/C=C/c1ccc(OP(=O)(O)O)cc1)C(=O)N1CCC[C@H]1C(=O)NCCNC(N)=O [CHEMBL574636] | Active |
| CC(C)C[C@H](NC(=O)/C=C/c1ccc(OP(=O)(O)O)cc1)C(=O)N1C[C@H]2C[C@H]2[C@H]1C(=O)N[C@@H](CCC(N)=O)C(=O)NCc1ccccc1 [CHEMBL575497] | Active |
| CC(C)C[C@H](NC(=O)/C=C/c1ccc(OP(=O)(O)O)cc1)C(=O)N1CCC[C@H]1C(=O)NCCOC(N)=O [CHEMBL576590] | Active |
| CC(C)C[C@H](NC(=O)/C=C/c1ccc(OP(=O)(O)O)cc1)C(=O)N1C[C@H]2C[C@H]2[C@H]1C(=O)NCCCC(N)=O [CHEMBL577143] | Active |
| CCCC[C@H](CCC(N)=O)NC(=O)[C@@H]1[C@@H]2C[C@@H]2CN1C(=O)[C@H](CC(C)C)NC(=O)/C=C/c1ccc(OP(=O)(O)O)cc1 [CHEMBL583116] | Active |
| CC(C)C[C@H](NC(=O)/C=C/c1ccc(OP(=O)(O)O)cc1)C(=O)N1C[C@H]2C[C@H]2[C@H]1C(=O)N[C@@H](CCC(N)=O)[C@@H](C)O [CHEMBL583725] | Active |
| CC(=O)OC[C@H](CCC(N)=O)NC(=O)[C@@H]1[C@@H]2C[C@@H]2CN1C(=O)[C@H](CC(C)C)NC(=O)/C=C/c1ccc(OP(=O)(O)O)cc1 [CHEMBL583726] | Active |
| CC(C)C[C@H](NC(=O)/C=C/c1ccc(OP(=O)(O)O)cc1)C(=O)N1C[C@H]2C[C@H]2[C@H]1C(=O)NCCOCc1ccccc1 [CHEMBL583728] | Active |
| CC(C)C[C@H](NC(=O)[C@H](Cc1ccc(O)cc1)NC(=O)[C@H]1CCCN1C(=O)CN)C(=O)N1CCC[C@H]1C(=O)N[C@@H](CCC(N)=O)C(=O)N[C@H](C(=O)N[C@H](C(N)=O)C(C)C)[C@H](C)O [CHEMBL2367507] (H-G[dP]YLPQ[aThr]V-NH2) | Active |

Same assay, conditions: sheet 6QHD_actives_decoys; retrospective screening set for STAT3 SH2 domain (PDB 6QHD); […]; ref DUD-E; cited from earlier work

| Structure (SMILES) | Type |
| --- | --- |
| COc1cc([N+](=O)[O-])ccc1NC(=S)Nc1ccc(S(=O)(=O)Nc2ccc(Cl)nn2)cc1 [Decoy332] | Inactive (Decoy) |

Same assay, conditions: sheet 6QHD_actives_decoys; retrospective screening set for STAT3 SH2 domain (PDB 6QHD); decoys generated with DUD-E and presumed inactive, not tested; ref DUD-E; cited from earlier work

| Structure (SMILES) | Type |
| --- | --- |
| Nc1nc(OCc2cc(Br)cs2)c2ncn(CCCCCCCCO[C@@H]3O[C@@H](CO)[C@@H](O)[C@@H](O)[C@@H]3O)c2n1 [Decoy329] | Inactive (Decoy) |
| Nc1nc(OCc2cc(Br)cs2)c2ncn(CCCCCCCCO[C@@H]3O[C@@H](CO)[C@@H](O)[C@@H](O)[C@H]3O)c2n1 [Decoy330] | Inactive (Decoy) |
| Nc1nc(OCc2cc(Br)cs2)c2ncn(CCCCCCCCO[C@H]3O[C@@H](CO)[C@@H](O)[C@@H](O)[C@@H]3O)c2n1 [Decoy331] | Inactive (Decoy) |
| COCC(=O)Nc1c(I)c(C(=O)NC[C@H](O)CO)c(I)c(C(=O)N(C)C[C@H](O)CO)c1I [Decoy333] | Inactive (Decoy) |
| CNc1ncnc2c1ncn2[C@H]1C[C@H](O)[C@@H](COC(c2ccccc2)(c2ccc(OC)cc2)c2ccc(OC)cc2)O1 [Decoy334] | Inactive (Decoy) |
| COC(=O)c1ccc(C(=O)OC)c(NC(=O)c2ccc(C(=O)Nc3cc(C(=O)OC)ccc3C(=O)OC)cc2)c1 [Decoy335] | Inactive (Decoy) |
| C=CCn1c(Cc2csc(N)n2)nnc1SCC(=O)Nc1ccc(S(=O)(=O)Nc2cc(C)on2)cc1 [Decoy336] | Inactive (Decoy) |
| COc1ccc([C@H](C(=O)NCS(=O)(=O)c2ccc(C)cc2)N(Cc2ccco2)C(=O)CCl)cc1 [Decoy337] | Inactive (Decoy) |
| COC(=O)[C@@H]1O[C@H](OC/C(=N/NC(N)=O)[C@@]2(O)CC[C@@H]3[C@@H]4CC[C@@H]5C[C@H](OC(C)=O)CC[C@@]5(C)[C@H]4C(=O)C[C@]32C)[C@@H](OC(C)=O)[C@H](OC(C)=O)[C@H]1OC(C)=O [Decoy338] | Inactive (Decoy) |
| COC(=O)[C@@H]1O[C@H](OC/C(=N/NC(N)=O)[C@@]2(O)CC[C@@H]3[C@@H]4CC[C@@H]5C[C@H](OC(C)=O)CC[C@]5(C)[C@H]4C(=O)C[C@]32C)[C@@H](OC(C)=O)[C@H](OC(C)=O)[C@H]1OC(C)=O [Decoy339] | Inactive (Decoy) |
| COC(=O)[C@@H]1O[C@H](OC/C(=N/NC(N)=O)[C@@]2(O)CC[C@@H]3[C@@H]4CC[C@H]5C[C@H](OC(C)=O)CC[C@@]5(C)[C@H]4C(=O)C[C@]32C)[C@@H](OC(C)=O)[C@H](OC(C)=O)[C@H]1OC(C)=O [Decoy340] | Inactive (Decoy) |
| COC(=O)/C(=N/NC(C)(C)C)[C@@H](C(=O)C(=O)Nc1cc(C)ccc1C)c1nc2ccccc2[nH]c1=O [Decoy341] | Inactive (Decoy) |
| C/C=C(/C[C@@H](O)N(C=O)Cc1cnc(C)nc1N)SS/C(=C/C)C[C@@H](O)N(C=O)Cc1cnc(C)nc1N [Decoy342] | Inactive (Decoy) |
| C=CCSc1nnc(/N=C(\O)CSc2nnc(N/N=C/c3c(O)ccc4ccccc34)n2N)s1 [Decoy343] | Inactive (Decoy) |
